How the values were obtained:
[1] = biological target: T1, Alpha-2B adrenergic receptor (Homo sapiens, UniProt P18089); experiment: Binding affinity against Alpha-2B adrenergic receptor from human clones.
T1 sequence (P18089 whole entry): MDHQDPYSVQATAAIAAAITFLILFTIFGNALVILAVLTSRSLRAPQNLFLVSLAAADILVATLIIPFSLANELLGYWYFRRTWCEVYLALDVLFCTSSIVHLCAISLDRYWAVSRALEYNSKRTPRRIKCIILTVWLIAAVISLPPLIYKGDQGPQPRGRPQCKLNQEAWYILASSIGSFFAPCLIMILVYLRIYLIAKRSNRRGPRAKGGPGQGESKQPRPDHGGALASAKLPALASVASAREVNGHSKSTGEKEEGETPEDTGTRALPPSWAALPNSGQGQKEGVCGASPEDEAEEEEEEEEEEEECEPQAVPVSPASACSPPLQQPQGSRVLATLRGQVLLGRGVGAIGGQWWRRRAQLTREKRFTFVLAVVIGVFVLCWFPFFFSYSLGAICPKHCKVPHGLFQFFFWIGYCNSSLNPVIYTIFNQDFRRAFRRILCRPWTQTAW

[2] = biological target: T2, Alpha-1D adrenergic receptor (Homo sapiens, UniProt P25100); experiment: Binding affinity against Alpha-1D adrenergic receptor, from human clones.
T2 sequence (P25100 whole entry): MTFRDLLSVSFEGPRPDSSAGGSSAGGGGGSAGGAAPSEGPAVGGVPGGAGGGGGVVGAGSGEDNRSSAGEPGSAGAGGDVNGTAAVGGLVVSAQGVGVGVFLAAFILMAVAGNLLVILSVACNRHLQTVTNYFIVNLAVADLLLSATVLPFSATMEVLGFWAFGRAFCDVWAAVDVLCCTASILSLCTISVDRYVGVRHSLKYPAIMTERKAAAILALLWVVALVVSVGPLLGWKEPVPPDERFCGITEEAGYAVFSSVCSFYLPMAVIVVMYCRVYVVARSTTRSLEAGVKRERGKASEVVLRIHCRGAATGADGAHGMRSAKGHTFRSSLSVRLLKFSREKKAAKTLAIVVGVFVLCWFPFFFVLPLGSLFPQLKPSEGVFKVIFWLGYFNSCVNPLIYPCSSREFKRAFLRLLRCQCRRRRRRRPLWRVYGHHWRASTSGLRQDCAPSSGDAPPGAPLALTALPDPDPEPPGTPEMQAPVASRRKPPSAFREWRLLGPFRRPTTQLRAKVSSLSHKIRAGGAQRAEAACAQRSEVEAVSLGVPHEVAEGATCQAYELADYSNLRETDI

[3] = biological target: T3, Alpha-1B adrenergic receptor (Homo sapiens, UniProt P35368); experiment: The compound was tested for binding affinity against Alpha-1B adrenergic receptor, from human clones.
T3 sequence (P35368 whole entry): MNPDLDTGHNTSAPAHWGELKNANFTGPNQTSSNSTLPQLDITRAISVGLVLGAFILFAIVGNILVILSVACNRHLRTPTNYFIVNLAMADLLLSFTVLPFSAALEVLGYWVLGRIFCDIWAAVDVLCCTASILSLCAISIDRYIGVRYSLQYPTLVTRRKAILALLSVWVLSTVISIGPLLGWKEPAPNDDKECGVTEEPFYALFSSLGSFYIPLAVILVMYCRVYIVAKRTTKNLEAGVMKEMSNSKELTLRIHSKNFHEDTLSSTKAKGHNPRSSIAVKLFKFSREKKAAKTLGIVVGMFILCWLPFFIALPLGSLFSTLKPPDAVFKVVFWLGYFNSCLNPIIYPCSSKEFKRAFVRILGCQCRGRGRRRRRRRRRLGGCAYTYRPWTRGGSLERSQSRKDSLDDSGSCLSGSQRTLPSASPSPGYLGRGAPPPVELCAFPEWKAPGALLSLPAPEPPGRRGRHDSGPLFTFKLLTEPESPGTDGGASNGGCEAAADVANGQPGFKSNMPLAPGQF

[4] = biological target: T4, Alpha-2C adrenergic receptor (Homo sapiens, UniProt P18825); experiment: Binding affinity against Alpha-2C adrenergic receptor from human clones.
T4 sequence (P18825 whole entry): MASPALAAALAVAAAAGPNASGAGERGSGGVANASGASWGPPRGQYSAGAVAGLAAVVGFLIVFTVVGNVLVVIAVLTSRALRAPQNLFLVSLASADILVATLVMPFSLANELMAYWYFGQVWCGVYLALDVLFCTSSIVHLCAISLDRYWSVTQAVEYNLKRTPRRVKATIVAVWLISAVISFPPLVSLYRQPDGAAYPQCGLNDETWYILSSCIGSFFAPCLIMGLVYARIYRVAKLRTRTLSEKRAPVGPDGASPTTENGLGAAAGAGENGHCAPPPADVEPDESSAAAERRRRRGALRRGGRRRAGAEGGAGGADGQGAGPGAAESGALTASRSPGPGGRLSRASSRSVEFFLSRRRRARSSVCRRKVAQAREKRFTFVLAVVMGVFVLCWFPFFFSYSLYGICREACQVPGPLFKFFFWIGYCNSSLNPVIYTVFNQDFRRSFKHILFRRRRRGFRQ

[5] = biological target: T5, Alpha-1D adrenergic receptor (Rattus norvegicus, UniProt P23944); experiment: Binding affinity against Alpha-1D adrenergic receptor, from rat clones.
T5 sequence (P23944 whole entry): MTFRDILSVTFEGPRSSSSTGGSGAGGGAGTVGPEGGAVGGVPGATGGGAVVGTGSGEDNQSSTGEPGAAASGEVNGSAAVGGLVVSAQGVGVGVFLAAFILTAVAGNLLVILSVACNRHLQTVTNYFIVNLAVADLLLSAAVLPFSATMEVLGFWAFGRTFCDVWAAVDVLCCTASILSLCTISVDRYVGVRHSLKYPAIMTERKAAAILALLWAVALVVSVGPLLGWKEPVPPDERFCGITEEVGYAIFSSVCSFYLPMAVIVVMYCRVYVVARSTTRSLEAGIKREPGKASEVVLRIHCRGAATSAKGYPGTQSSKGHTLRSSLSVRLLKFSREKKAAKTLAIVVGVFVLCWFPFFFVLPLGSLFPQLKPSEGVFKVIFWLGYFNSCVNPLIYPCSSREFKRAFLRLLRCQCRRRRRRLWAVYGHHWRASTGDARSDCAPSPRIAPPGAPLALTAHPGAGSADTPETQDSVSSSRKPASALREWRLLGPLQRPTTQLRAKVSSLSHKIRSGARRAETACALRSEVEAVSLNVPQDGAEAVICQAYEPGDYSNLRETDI

| Compound | Ki [1] [nM] | Ki [2] [nM] | Ki [3] [nM] | Ki [4] [nM] | Ki [5] [nM] |
| --- | --- | --- | --- | --- | --- |
| COc1ccccc1N1CCN(CCCNc2c(C)c(=O)n(C)c(=O)n2C)CC1 | 406 | 21 | 92 | 131 | 186 |
| COc1cccc(OC)c1OCCNCC1COc2ccccc2O1 (stereo not drawn) | 28 | – | – | 0.8 | 1.2 |
| O=C(NC1CCN(CCc2c[nH]c3ccccc23)CC1)c1ccccc1 [INDORAMIN] | 528 | 110 | 29 | 476 | 611 |
